The results in this text go back to ChEMBL document CHEMBL1149945, “Synthesis and structure-activity relationships of potent retinoid X receptor ligands” (Bioorg Med Chem Lett, 1997).

The structures appear in SMILES notation.

In test [1] the target is T1, Retinoic acid receptor RXR-beta (Mus musculus, UniProt P28704).
T1 sequence (P28704 whole entry): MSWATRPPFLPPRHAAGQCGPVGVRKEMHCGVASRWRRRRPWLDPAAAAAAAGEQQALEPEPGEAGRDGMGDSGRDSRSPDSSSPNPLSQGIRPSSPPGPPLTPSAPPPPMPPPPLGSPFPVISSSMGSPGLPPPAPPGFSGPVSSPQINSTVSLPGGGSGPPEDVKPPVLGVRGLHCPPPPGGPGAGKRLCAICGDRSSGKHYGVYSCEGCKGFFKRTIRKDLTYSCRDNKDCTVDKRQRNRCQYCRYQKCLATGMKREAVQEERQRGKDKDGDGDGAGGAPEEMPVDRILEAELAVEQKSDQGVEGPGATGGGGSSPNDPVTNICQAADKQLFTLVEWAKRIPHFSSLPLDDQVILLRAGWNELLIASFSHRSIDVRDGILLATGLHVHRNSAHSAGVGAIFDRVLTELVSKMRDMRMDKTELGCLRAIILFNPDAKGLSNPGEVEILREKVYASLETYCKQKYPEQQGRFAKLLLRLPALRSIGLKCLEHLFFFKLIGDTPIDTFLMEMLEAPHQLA
Kind of test: Inhibition of [3H]9-cis-RA binding to Retinoid X receptor RXR beta.

The target in test [2] is T2, Retinoic acid receptor RXR-gamma (Mus musculus) (UniProt P28705).
T2 sequence (whole entry): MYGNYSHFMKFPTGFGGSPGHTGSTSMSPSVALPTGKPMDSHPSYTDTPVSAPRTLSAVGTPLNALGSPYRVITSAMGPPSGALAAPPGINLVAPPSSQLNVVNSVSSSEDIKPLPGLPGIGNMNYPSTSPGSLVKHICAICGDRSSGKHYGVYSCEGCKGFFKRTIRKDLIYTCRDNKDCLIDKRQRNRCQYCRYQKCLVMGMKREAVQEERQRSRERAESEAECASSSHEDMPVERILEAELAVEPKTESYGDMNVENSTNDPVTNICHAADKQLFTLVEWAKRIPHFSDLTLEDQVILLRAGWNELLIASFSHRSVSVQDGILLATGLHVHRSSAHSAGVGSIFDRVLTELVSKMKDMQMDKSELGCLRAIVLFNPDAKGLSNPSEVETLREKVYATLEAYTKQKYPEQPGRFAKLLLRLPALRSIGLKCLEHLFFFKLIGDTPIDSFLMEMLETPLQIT
The test can be described thus: Percent efficacy for Retinoid X receptor RXR gamma in CV-1 cell transcriptional activation assay. It is filed as cell-based.

Test [3] concerns the target T3, Retinoic acid receptor beta (Homo sapiens, UniProt P10826).
T3 sequence (P10826 whole entry): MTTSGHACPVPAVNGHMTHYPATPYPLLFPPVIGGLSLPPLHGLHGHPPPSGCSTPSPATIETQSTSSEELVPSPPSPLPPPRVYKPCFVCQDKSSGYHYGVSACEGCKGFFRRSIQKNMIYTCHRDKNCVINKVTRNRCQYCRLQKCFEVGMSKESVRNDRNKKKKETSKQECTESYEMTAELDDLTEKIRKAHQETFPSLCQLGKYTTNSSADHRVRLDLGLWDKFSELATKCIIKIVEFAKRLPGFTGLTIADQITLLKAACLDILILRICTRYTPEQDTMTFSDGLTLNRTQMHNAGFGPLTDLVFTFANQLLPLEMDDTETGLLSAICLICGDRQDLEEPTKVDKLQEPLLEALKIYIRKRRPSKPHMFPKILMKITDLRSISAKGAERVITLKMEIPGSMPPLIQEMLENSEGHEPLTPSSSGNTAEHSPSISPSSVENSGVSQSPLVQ
Kind of test: Inhibition of [3H]ATRA binding to retinoic acid receptor RAR beta.

In test [4] the target is T4, Retinoic acid receptor RXR-alpha (Homo sapiens, UniProt P19793).
T4 sequence (P19793 whole entry): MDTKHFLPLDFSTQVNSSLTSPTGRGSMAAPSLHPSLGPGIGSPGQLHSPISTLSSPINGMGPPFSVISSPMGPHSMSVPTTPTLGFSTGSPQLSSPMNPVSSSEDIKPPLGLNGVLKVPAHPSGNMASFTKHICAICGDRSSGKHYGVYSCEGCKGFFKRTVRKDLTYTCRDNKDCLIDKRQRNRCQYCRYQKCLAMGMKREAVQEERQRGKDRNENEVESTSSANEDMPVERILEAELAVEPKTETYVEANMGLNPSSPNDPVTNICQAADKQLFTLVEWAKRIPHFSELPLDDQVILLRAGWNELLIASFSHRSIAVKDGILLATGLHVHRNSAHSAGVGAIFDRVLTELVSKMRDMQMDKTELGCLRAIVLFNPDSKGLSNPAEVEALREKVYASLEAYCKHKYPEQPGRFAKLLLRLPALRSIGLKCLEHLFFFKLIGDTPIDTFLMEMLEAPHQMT
The test can be described thus: Inhibition of [3H]9-cis-RA binding to Retinoid X receptor RXR alpha.

For test [5], the target named is T5, Retinoic acid receptor RXR-gamma (Mus musculus, UniProt P28705).
T5 sequence (P28705 whole entry): T2 sequence (whole entry)
Kind of test: Inhibition of [3H]9-cis-RA binding to Retinoid X receptor RXR gamma.

For test [6], the target named is T6, Retinoic acid receptor alpha (Homo sapiens, UniProt P10276).
T6 sequence (P10276 whole entry): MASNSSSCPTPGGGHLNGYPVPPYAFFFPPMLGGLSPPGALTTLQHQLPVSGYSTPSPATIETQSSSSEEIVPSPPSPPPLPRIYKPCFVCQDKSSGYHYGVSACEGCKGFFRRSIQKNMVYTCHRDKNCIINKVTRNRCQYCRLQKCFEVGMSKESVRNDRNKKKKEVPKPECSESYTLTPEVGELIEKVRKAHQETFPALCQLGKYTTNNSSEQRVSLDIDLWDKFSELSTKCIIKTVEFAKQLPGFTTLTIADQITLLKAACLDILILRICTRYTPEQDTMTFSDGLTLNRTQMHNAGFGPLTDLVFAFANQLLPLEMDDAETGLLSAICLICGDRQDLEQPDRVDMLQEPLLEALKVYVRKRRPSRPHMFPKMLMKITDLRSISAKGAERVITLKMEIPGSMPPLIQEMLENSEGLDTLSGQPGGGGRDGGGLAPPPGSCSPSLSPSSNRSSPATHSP
Kind of test: Effective potency in transcriptional activation assay in CV-1 cells expressing retinoic acid receptor RAR alpha; Not active. Format: functional, cell-based.

For test [7], the target named is T7, Retinoic acid receptor gamma (Homo sapiens, UniProt P13631).
T7 sequence (P13631 whole entry): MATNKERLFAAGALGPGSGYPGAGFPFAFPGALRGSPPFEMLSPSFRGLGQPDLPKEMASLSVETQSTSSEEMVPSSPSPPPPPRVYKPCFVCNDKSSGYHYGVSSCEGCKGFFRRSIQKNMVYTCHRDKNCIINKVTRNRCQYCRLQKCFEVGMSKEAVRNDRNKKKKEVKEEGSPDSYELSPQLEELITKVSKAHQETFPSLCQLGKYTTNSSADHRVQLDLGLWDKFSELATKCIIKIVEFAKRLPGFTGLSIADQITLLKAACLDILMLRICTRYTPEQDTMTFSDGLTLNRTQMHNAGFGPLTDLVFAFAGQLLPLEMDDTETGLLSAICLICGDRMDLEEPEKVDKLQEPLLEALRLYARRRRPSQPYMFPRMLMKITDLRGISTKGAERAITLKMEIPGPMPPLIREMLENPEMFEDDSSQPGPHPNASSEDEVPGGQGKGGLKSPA
The test can be described thus: Inhibition of [3H]-ATRA binding to Retinoic acid receptor RAR gamma.

The target in test [8] is T3, Retinoic acid receptor beta. Particulars: cv-1; call rule not given here.
The target in test [9] is T6, Retinoic acid receptor alpha. The test can be described thus: Inhibition of [3H]ATRA binding to retinoic acid receptor RAR alpha.
Test [10] addresses T7, Retinoic acid receptor gamma. The test can be described thus: Effective potency in transcriptional activation assay in CV-1 cells expressing retinoic acid receptor RAR gamma. It is filed as functional, cell-based.
For test [11], the target named is T5, Retinoic acid receptor RXR-gamma. The test can be described thus: Effective potency in transcriptional activation assay in CV-1 cells expressing Retinoid X receptor RXR gamma. It is filed as cell-based.
Test [12] concerns the target T4, Retinoic acid receptor RXR-alpha. Kind of test: Effective potency in transcriptional activation assay in CV-1 cells expressing Retinoid X receptor RXR alpha. It is filed as functional, cell-based.
For test [13], the target named is T1, Retinoic acid receptor RXR-beta. Kind of test: Effective potency in transcriptional activation assay in CV-1 cells expressing Retinoid X receptor RXR beta. Format: functional, cell-based.
Test [14] addresses T8, Retinoic acid receptor RXR-beta (Mus musculus) (UniProt P28704).
T8 sequence (whole entry): T1 sequence (P28704 whole entry)
Kind of test: Percent efficacy for Retinoid X receptor RXR beta in CV-1 cell transcriptional activation assay. Format: functional, cell-based.

Test [15] has as its target T3, Retinoic acid receptor beta. The test can be described thus: Effective potency in transcriptional activation assay in CV-1 cells expressing retinoic acid receptor RAR beta. Format: functional, cell-based.
Test [16] addresses T7, Retinoic acid receptor gamma. Particulars: cv-1.

One may read the Ki as a dissociation constant, usually derived from enzyme kinetics or from competition with a known ligand. The EC50 is the concentration giving half of the maximal effect. As for `CC(/C=C/[C@]12CCC[C@@]1(c1ccc3c(c1)C(C)(C)CCC3(C)C)C2)=C\C(=O)O`, the Ki was 10 nM in test [1]; above 1000 nM in test [3]; 3 nM in test [4]; 5 nM in test [5]; above 1000 nM in test [7]; above 1000 nM in test [9]. For the same compound, the Efficacy in [2] was 77%; in test [14] it was 92%. Moreover, the EC50 result is “Not Active” in [6]; “Not Active” in [8]; 209 nM in test [10]; 3 nM in test [11]; 4 nM in test [12]; 3 nM in test [13].
Consider `C=C1C[C@H](c2ccc3c(c2)C(C)(C)CCC3(C)C)[C@@H](/C=C/C(C)=C/C(=O)O)C1`, for which the inhibition constant (Ki) in test [1] is 252 nM; in [3], above 1000 nM; in [4], 38 nM; in test [5], 54 nM; in [7], above 1000 nM; in test [9], above 1000 nM. Also, the Efficacy in [2] was determined as 99%; in test [14], 169%. Also, the EC50 result in test [6] was “Not Active”; in test [15], 559 nM; in test [10], 355 nM; in test [11], 212 nM; in test [12] it was 189 nM; in [13], 222 nM.
With `CC(/C=C/[C@@H]1CCC[C@@H]1c1ccc2c(c1)C(C)(C)CCC2(C)C)=C\C(=O)O`, the Ki in [1] was 11 nM; in test [3], above 1000 nM; in test [4], 15 nM; in test [5] it was 26 nM; in test [7], above 1000 nM; in test [9] it was above 1000 nM. For the same compound, the Efficacy in [2] turned out to be 58%; in test [14], 101%. In addition, the EC50 entry in test [6] is “Not Active”; in test [8] it was “Not Active”; in [11], 25 nM; in [12], 31 nM; in test [13], 29 nM; in test [16], “Not Active”.
On to `CC(/C=C/C1=C(c2ccc3c(c2)C(C)(C)CCC3(C)C)CCC1)=C\C(=O)O`, for which the Ki in test [1] is 36 nM; in test [3], above 1000 nM; in test [4] it was 20 nM; in [5] it was 58 nM; in [7] it was above 1000 nM; in test [9], above 1000 nM. Moreover, the Efficacy was 62% in test [2] and 70% in [14]. The EC50 result in test [6] is “Not Active”; in test [15] it was 339 nM; in [10], 1150 nM; in [11] it was 40 nM; in test [12] it was 53 nM; in test [13] it was 42 nM.
Take `CC(/C=C/[C@H]1CCC[C@@H]1c1ccc2c(c1)C(C)(C)CCC2(C)C)=C\C(=O)O`: the Ki in [1] was 6 nM; in [3], above 1000 nM; in test [4], 3 nM; in test [5], 5 nM; in test [7] it was above 1000 nM; in test [9], above 1000 nM. For the same compound, the Efficacy in [2] turned out to be 70%; in test [14], 110%. In addition, the EC50 result is “Not Active” in [6]; 637 nM in [15]; 1290 nM in test [10]; 6 nM in test [11]; 8 nM in test [12]; 10 nM in test [13].
In the case of `CC(/C=C/C1=C(c2cc3c(cc2C)C(C)(C)CCC3(C)C)CCC1)=C\C(=O)O`, the Ki is 25 nM in [1]; above 1000 nM in test [3]; 5 nM in [4]; 22 nM in test [5]; above 1000 nM in test [7]; above 1000 nM in [9]. The Efficacy in test [2] was 42%; in test [14], 44%. Also, the EC50 entry in [6] is “Not Active”; in test [8], “Not Active”; in test [11] it was 128 nM; in [12], 95 nM; in [13] it was 191 nM; in test [16], “Not Active”.
The compound `C=C(c1ccc(C(=O)O)cc1)c1cc2c(cc1C)C(C)(C)CCC2(C)C` showed an Efficacy in test [2] of 85%.
For `CC(/C=C/[C@]1(C)CCCC1c1ccc2c(c1)C(C)(C)CCC2(C)C)=C\C(=O)O` (single isomer, unassigned), the Ki in [1] was 10 nM; in [3], above 1000 nM; in test [4], 4 nM; in [5], 7 nM; in [7], above 1000 nM; in test [9], above 1000 nM. Also, the Efficacy was determined as 38% in [2] and 50% in test [14]. Also, the concentration giving a half-maximal response (EC50) entry in [6] was “Not Active”; in test [8], “Not Active”; in [11] it was 44 nM; in test [12] it was 62 nM; in test [13], 62 nM; in [16], “Not Active”.
